Experimental findings from ChEMBL document CHEMBL1147440, “Pyrazino[1,2-a]indoles as novel high-affinity and selective imidazoline I(2) receptor ligands” (Bioorg Med Chem Lett, 2004) are described below.

Assay [1] can be described thus: Displacement of [3H]2-BFI from imidazoline receptor I-2. Details: species or system Rattus norvegicus. (Loss of bound radioactivity is the signal in a displacement assay; it reports binding, not function.)
The target in assay [2] is T1, Adrenergic receptor alpha-2 (Rattus norvegicus, UniProt P22086+P19328+P22909).
T1 sequence (P22086 whole entry): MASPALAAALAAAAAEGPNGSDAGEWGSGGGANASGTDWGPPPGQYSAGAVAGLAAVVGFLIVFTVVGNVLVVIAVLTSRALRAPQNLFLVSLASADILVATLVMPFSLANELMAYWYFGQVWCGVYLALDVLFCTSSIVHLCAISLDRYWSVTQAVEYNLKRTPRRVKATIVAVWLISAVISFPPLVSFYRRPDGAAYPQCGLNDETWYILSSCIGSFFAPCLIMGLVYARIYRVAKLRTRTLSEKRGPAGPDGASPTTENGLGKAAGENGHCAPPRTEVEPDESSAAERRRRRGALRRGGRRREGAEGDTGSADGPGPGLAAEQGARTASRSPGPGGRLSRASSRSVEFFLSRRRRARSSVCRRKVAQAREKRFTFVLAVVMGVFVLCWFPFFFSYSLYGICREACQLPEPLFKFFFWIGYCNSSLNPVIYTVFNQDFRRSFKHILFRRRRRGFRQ
T1 sequence (P19328 whole entry): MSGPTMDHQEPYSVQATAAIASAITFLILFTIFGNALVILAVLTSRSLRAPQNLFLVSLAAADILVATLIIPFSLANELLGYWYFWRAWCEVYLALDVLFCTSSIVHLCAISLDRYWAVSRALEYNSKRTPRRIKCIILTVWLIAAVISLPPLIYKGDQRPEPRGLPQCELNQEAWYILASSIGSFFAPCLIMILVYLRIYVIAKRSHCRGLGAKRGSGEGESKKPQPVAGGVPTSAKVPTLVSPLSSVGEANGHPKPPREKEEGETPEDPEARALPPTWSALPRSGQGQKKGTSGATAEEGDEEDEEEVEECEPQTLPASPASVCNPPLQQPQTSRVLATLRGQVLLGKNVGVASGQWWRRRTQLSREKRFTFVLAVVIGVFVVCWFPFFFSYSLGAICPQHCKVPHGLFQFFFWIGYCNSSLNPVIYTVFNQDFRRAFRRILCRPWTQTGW
T1 sequence (P22909 whole entry): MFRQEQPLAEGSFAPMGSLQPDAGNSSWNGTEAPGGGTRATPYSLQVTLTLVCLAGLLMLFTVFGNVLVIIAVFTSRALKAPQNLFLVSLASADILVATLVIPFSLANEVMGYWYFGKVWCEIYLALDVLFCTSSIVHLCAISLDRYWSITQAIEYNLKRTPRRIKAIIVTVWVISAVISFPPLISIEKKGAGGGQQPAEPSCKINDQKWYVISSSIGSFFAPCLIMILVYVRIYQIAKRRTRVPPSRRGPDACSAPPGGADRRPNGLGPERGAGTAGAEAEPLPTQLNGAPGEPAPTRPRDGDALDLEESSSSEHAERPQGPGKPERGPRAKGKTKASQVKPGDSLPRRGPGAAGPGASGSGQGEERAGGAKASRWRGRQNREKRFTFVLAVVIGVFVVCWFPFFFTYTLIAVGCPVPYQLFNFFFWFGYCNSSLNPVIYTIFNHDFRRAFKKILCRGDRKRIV
The assay can be described thus: Displacement of [3H]RX-821002 from alpha-2 adrenergic receptor. The format is protein assay.

The target of assay [3] is 5-hydroxytryptamine receptor 2A (Rattus norvegicus, UniProt P14842). The assay can be described thus: Binding affinity for 5-hydroxytryptamine 2A serotonin receptor.
Chain of 5-hydroxytryptamine receptor 2A (P14842 whole entry): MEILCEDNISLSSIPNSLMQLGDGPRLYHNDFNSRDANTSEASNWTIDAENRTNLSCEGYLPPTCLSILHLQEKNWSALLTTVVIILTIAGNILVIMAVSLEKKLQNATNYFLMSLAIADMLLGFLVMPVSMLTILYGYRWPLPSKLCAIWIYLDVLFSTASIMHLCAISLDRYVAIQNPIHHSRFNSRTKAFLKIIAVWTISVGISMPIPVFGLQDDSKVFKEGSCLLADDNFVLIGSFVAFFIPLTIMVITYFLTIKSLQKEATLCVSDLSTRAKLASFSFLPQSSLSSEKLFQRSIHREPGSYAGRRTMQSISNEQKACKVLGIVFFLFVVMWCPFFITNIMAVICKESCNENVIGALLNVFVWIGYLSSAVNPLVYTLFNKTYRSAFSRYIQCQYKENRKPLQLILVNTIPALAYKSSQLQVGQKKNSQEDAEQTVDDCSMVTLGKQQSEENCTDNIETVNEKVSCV

pIC50, pKi: −log10 of the molar value. A value given as a limit tells only on which side of the number the result lay.

In general, pKi refers to the Ki on a negative log10 scale, so that one unit is a factor of ten. Read a low pKi as a large Ki. Compound `COc1ccc2[nH]c3c(c2c1)CCNC3` had a pKi in assay [1] of 5.79.
With `C1=NCCc2c1[nH]c1ccccc21`, the pKi in assay [1] was 8.14.
As usually defined, the Ki is a dissociation constant, usually derived from enzyme kinetics or from competition with a known ligand. Read a high Ki as lower affinity. In assay [1], `c1ccc2c3c([nH]c2c1)C1=NCCN1CC3` had a pKi of 5.00. Further, the inhibition constant (Ki) in assay [2] worked out at 1600 nM.
A word on the pIC50: it is the IC50 on a negative log10 scale, so that one unit is a factor of ten. `COc1ccc2c(c1)cc1n2CCNC1` had a negative-log Ki (pKi) in assay [3] of 5.00. For the same compound, in assay [1], the negative-log IC50 (pIC50) was 5.08 and the pKi is 8.21. This compound also gave an inhibitory constant (Ki) in assay [2] of 9550 nM.
As to `c1ccc2oc(C3=NCCN3)cc2c1`, in assay [1], the pKi was > 8.00.
For `COc1ccc2cc3n(c2c1)CCNC3`, the pKi in assay [1] was 6.60. In assay [2], this compound came in with a Ki of 4510 nM.
As for `c1ccc2c(c1)cc1n2CCNC1`, the negative logarithm of the Ki (pKi) in assay [1] was 8.19. Besides, the Ki in assay [2] came out at 516 nM.
`c1ccc2c(c1)nc1n2CCNC1` gave a pKi in assay [1] of 5.17. The compound further had an inhibitory constant (Ki) in assay [2] of 13400 nM.
With `COc1ccc2[nH]c3c(c2c1)CCN=C3`, in assay [1], the negative logarithm of the Ki (pKi) was 6.32.
Turning to `COc1ccc2c3c([nH]c2c1)C=NCC3` [CGS-19281A], the pKi in assay [1] was 7.74.
For `c1ccc2c3c([nH]c2c1)CNCC3` [TRYPTOLINE], the pKi is 8.03 in assay [1] and 5.80 in assay [2].
